Where two headings read alike, the source gives them in different places.

Series [1] has as its system IFNγ-induced pSTAT1 in CD14+ monocytes. The series is described as follows: Assay 7: Inhibition of IFNγ-induced pSTAT1 in CD14+ monocytes. The note with it: Homo sapiens, Monocyte, flow cytometry, read-out: pIC50, inhibition of IFNγ-induced pSTAT1 (converted). It is filed as cell-based. As for the experimental part:
The potency of the test compound for inhibition of interferon gamma (IFNγ) stimulated STAT1 phosphorylation was measured in CD14-positive (CD14+) monocytes derived from human whole blood (Stanford Blood Center) using flow cytometry. Because IFNγ signals through JAK, this assay provides a measure of JAK cellular potency.
Monocytes were identified using a fluorescein isothiocyanate (FITC) conjugated anti-CD14 antibody (Clone RM052, Beckman Coulter), and an Alexa Fluor 647 conjugated anti-pSTAT1 antibody (pY701, Clone 4a, BD Biosciences) was used to detect STAT1 phosphorylation.
Human peripheral blood mononuclear cells (PBMC) were isolated from human whole blood of healthy donors using a ficoll gradient. […] Cells were washed twice with FACS buffer, and then resuspended in 1:10 anti-pSTAT1 Alexa Fluor 647:FACS buffer (100 μL) for 30 min at RT in the dark, washed twice in FACS buffer, and analyzed using a LSRII flow cytometer (BD Biosciences).
To determine the inhibitory potency of the test compound, the median fluorescent intensity (MFI) of pSTAT1 was measured in CD14+ monocytes. IC50 values were determined from analysis of the inhibition curves of MFI vs compound concentration. Data are expressed as pIC50 (negative decadic logarithm IC50) values.
(Flow cytometry measures light scatter and fluorescence of single cells or particles in a stream.)

A short description of series [2]: Assay 12: Ocular pharmacokinetics in rabbit eyes. The note with it: for half-life: New Zealand white, vitreous, intravitreal solution formulation, 200 μg/eye and 50 μg/eye. It is filed as in vivo, New Zealand white rabbits. As for the experimental part: The objective of this assay was to determine the pharmacokinetics of the compound 1 in rabbit ocular tissues.
The compound of the invention, 5-ethyl-2-fluoro-4-(3-(5-(1-methylpiperidin-4-yl)-4,5,6,7-tetrahydro-1H-imidazo[4,5-c]pyridin-2-yl)-1H-indazol-6-yl)phenol (1) was dissolved in either 10% 2-hydroxypropyl-β-cyclodextrin to attain a target concentration of 4 mg/mL or in purified water to attain a target concentration of 1 mg/mL . Bilateral intravitreal injection (50 μL/eye) of the solution of test compound was administered to New Zealand white rabbits in two dose groups, 200 μg/eye and 50 μg/eye, respectively, for the cyclodextrin and water vehicle formulations, respectively. The test compound concentration was measured in ocular tissues: vitreous, aqueous, retina/choroid and iris-ciliary body at pre-determined time points post injection (30 min, 4 h, 1 d, 3 d, 7 d, 14 d). Two rabbits (four eyes) were dosed for each time point.
A suspension formulation was prepared by combining crystalline compound 1 of Example 2 with 0.5% hydroxypropyl methylcellulose (HPMC E5)+0.02% Tween 80 to attain a target concentration of 10 mg/mL. Bilateral intravitreal injection (50 μL/eye) of the suspension of test compound was administered to New Zealand white rabbits (500 μg/eye). The test compound concentration was measured in ocular tissues as in the […] at 30 min, 2 wks, 4 wks, 6 wks, and 8 wks post injection. […] The behavior is consistent with the solubility of compound 1 in the vehicle and the ocular pharmacokinetic behavior in the solution formulation. The drug concentration in plasma was measured and found to be at least 3 orders of magnitude lower than the concentration in vitreous tissue.

The subject of series [3] is IL-5 mediated survival of human eosinophils. The series is described as follows: Assay 16: IL-5 mediated eosinophil survival assay. It is filed as cell-based. The following applies: 72 h, read-out: pIC50, IL-5 mediated eosinophil survival (cell viability) (converted). As for the experimental part: The potency of the test compound for IL-5 mediated eosinophil survival was measured in human eosinophils isolated from human whole blood (AllCells). Because IL-5 signals through JAK, this assay provides a measure of JAK cellular potency. Human eosinophils were isolated from fresh human whole blood (AllCells) of healthy donors. Blood was mixed with 4.5% Dextran (Sigma-Aldrich) in a 0.9% sodium chloride solution (Sigma-Aldrich). Red blood cells were left to sediment for 35 minutes. The leukocyte rich upper layer was removed and layered over Ficoll-Paque (GE Healthcare) and centrifuged at 600 g for 30 minutes. The plasma and mononuclear cell layers were removed before the granulocyte layer was lysed with water to remove any contaminating red blood cells. […] Purity was analyzed using a LSRII flow cytometer (BD Biosciences). […]
After cytokine stimulation, cells were centrifuged at 300 g for 5 min and washed twice with cold DPBS (Life Technologies). To access viability and apoptosis, cells were incubated with Propidium Iodide (Thermo Fisher Scientific) and APC Annexin V (BD Biosciences) and analyzed using a LSRII flow cytometer (BD Biosciences). IC50 values were determined from analysis of the viability curves of percent cell viability vs compound concentration. Data are expressed as pIC50 (negative decadic logarithm IC50) values.

In the case of `CCc1cc(O)c(F)cc1-c1ccc2c(-c3nc4c([nH]3)CCN(C3CCN(C)CC3)C4)n[nH]c2c1` [Compound 1, 5-ethyl-2-fluoro-4-(3-(5-(1-methylpiperidin-4-yl)-4,5,6,7-tetrahydro-1H-imidazo[4,5-c]pyridin-2-yl)-1H-indazol-6-yl)phenol], the IC50 in series [1] was about 31.6 nM; in series [3] (in the presence of 10 pg/ml IL-5, 72 hours) it was 12.6 nM; in series [3] (in the presence of 1 ng/ml IL-5, 72 hours) it was 316 nM. Also, the figures for the half-life in series [2] (read-out: half-life of initial decrease in concentration in vitreous tissue (converted)) and in series [2] (read-out: terminal half-life in vitreous tissue (converted)) were about 720 min and about 5180 min, respectively. Also, the “clearance rate (linear decrease in drug concentration in the vitreous)” value in series [2] (intravitreal suspension of crystalline compound 1 of Example 2, 500 μg/eye, 30 min to 6 weeks) is given as “approximately 3 μg/mL/day”.

The values above are taken from US10251874B2, “Crystalline forms of a JAK inhibitor compound” (THERAVANCE BIOPHARMA R&D IP, LLC, priority 2017, dated 2019).
